In general, IC50 refers to the concentration needed to halve the response being measured. In general, inhibition refers to how much of the control response was suppressed.

Assay [1] addresses T1, 11-beta-hydroxysteroid dehydrogenase type 2 (Homo sapiens) (UniProt P80365).
T1 sequence (whole entry): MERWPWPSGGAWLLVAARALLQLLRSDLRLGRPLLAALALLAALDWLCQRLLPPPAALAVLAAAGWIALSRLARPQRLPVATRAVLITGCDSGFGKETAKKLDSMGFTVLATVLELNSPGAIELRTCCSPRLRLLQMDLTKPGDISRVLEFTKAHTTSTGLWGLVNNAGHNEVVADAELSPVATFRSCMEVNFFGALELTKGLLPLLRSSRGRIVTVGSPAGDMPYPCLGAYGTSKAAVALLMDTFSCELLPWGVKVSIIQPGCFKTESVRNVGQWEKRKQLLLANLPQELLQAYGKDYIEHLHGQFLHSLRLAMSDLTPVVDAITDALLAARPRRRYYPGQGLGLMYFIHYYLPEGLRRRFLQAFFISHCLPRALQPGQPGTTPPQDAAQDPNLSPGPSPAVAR
Description: Inhibition of human recombinant 11beta-HSD2 expressed in HEK293 cells assessed as reduction of […] conversion at 20 uM by scintillation counting. The assay is classed as cell-based.

Assay [2] has as its target T2, 11-beta-hydroxysteroid dehydrogenase 1 (Homo sapiens, UniProt P28845). Briefly: Inhibition of human recombinant 11beta-HSD1 expressed in HEK293 cells assessed as reduction of cortisone to cortisol conversion by scintillation counting. It counts as cell-based.
Assay [3] concerns the target T2, 11-beta-hydroxysteroid dehydrogenase 1. The note with it: HEK293, 4 uM.
Target sequence in this assay (P28845 whole entry, looked up): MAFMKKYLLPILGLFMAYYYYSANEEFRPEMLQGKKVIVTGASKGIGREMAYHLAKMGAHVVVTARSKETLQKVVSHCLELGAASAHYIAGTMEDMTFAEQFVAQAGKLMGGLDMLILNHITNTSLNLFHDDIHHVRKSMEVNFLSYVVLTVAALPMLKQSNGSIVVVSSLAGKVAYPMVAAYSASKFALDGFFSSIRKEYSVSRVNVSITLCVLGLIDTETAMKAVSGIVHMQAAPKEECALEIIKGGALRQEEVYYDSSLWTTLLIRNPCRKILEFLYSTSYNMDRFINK
Description: Inhibition of human recombinant 11beta-HSD1 expressed in HEK293 cells assessed as partial reduction of cortisone to cortisol conversion at 4 uM by scintillation counting
Assay [4] has the same target. Description: Inhibition of human recombinant 11beta-HSD1 expressed in HEK293 cells assessed as partial reduction of cortisone to cortisol conversion at 1.5 uM by scintillation counting. The assay is classed as cell-based.
Target sequence in this assay (P28845 whole entry, looked up): as above
The target of assay [5] is T1, 11-beta-hydroxysteroid dehydrogenase type 2 (Homo sapiens). Briefly: Inhibition of human recombinant 11beta-HSD2 expressed in HEK293 cells assessed as reduction of […] conversion up to 20 uM by scintillation counting. The assay is classed as cell-based.
Assay [6] concerns the target T2, 11-beta-hydroxysteroid dehydrogenase 1. Briefly: Inhibition of human recombinant 11beta-HSD1 expressed in HEK293 cells assessed as partial reduction of cortisone to cortisol conversion at 3 uM by scintillation counting. The assay is classed as cell-based.
Target sequence in this assay (P28845 whole entry, looked up): as above
Assay [7] shares this target. Description: Inhibition of human recombinant 11beta-HSD1 expressed in HEK293 cells assessed as reduction of cortisone to cortisol conversion at 20 uM by scintillation counting. It counts as cell-based.
Target sequence in this assay (P28845 whole entry, looked up): as above

Activity calls are given as the source filed them. The rule behind the calls is not given here.

`C[C@@H]1CC[C@]2(C(=O)O)CC[C@]3(C)C(=CC[C@@H]4[C@@]5(C)C[C@@H](O)[C@H](OC(=O)/C=C/c6ccc(O)cc6)C(C)(C)[C@@H]5CC[C@]43C)[C@@H]2[C@]1(C)O`: the outcome in assay [1] was inactive. The IC50 result in assay [2] (hek293) is “Not Active”. For the molecule `COC(=O)[C@]12CC[C@@H](C)[C@@](C)(O)[C@H]1C1=CC[C@@H]3[C@@]4(C)C[C@@H](O)[C@H](O)C(C)(C)[C@@H]4CC[C@@]3(C)[C@]1(C)CC2` [TORMENTIC ACID METHYL ESTER], in assay [1], the result was inactive. Moreover, the inhibition entry in assay [3] was “Active”. Besides, the IC50 in assay [2] (read-out: IC50) was 9400 nM. For the molecule `CC(=O)O[C@H]1CC[C@]2(C)[C@H]3C(=O)C=C4[C@@H]5[C@@H](C)[C@H](C)CC[C@]5(C(=O)O)CC[C@@]4(C)[C@]3(C)CC[C@H]2C1(C)C` [11-OXOURSOLIC ACID ACETATE], the IC50 in assay [2] (read-out: IC50) was determined as 1350 nM.

For `C[C@@H]1CC[C@]2(C(=O)O)CC[C@]3(C)C(=CC[C@@H]4[C@@]5(C)C[C@@H](O)[C@H](OC(=O)/C=C\c6ccc(O)cc6)C(C)(C)[C@@H]5CC[C@]43C)[C@@H]2[C@]1(C)O`, in assay [1], the result was inactive. Besides, the IC50 result in assay [2] (hek293) was “Not Active”.

Take `C[C@H]1[C@H](C)CC[C@]2(C(=O)O)CC[C@]3(C)C(=CC[C@@H]4[C@@]5(C)CC[C@H](O)C(C)(C)[C@@H]5CC[C@]43C)[C@H]12`: in assay [4], the inhibition result is “Active”. The result in assay [1] was inactive.

On to `CC[C@H](CC[C@@H](C)[C@H]1CC[C@H]2[C@@H]3CC=C4C[C@@H](O)CC[C@]4(C)[C@H]3CC[C@]12C)C(C)C`, for which, in assay [1], the result was inactive. Take `C[C@H]1[C@H](C)CC[C@]2(C(=O)O)CC[C@]3(C)C(=CC[C@@H]4[C@@]5(C)C[C@@H](O)[C@H](O)C(C)(C)[C@@H]5CC[C@]43C)[C@H]12` [COROSOLIC ACID]: the inhibition result in assay [5] is “inactive”. Further, the inhibition result in assay [2] is “Dose-dependent effect”. Moreover, in assay [2] (read-out: IC50), the IC50 worked out at 810 nM. `COC(=O)[C@]12CC[C@@H](C)[C@H](C)[C@H]1C1=CC[C@@H]3[C@@]4(C)C[C@@H](O)[C@H](O)C(C)(C)[C@@H]4CC[C@@]3(C)[C@]1(C)CC2` [COROSOLIC ACID METHYL ESTER]: in assay [1], the result was inactive. Moreover, in assay [2] (hek293), the IC50 entry was “Not Active”.

With `COC(=O)[C@]12CC[C@@H](C)[C@H](C)[C@H]1C1=CC[C@@H]3[C@@]4(C)C[C@@H](O)[C@@H](O)C(C)(C)[C@@H]4CC[C@@]3(C)[C@]1(C)CC2`, the result in assay [1] was inactive. Moreover, in assay [2] (read-out: IC50), the IC50 was found to be 5200 nM. As for `C[C@H]1[C@H](C)CC[C@]2(C(=O)O)CC[C@]3(C)C(=CC[C@@H]4[C@@]5(C)C[C@@H](O)C(=O)C(C)(C)[C@@H]5CC[C@]43C)[C@H]12`, the inhibition entry in assay [6] was “Active”. Also, the outcome in assay [1] was inactive. In the case of `C[C@H]1[C@H](C)CC[C@]2(C)CC[C@]3(C)C(=CC(=O)[C@@H]4[C@@]5(C)CC[C@@H](O)[C@](C)(C(=O)O)[C@@H]5CC[C@]43C)[C@H]12`, the inhibition in assay [1] was found to be 68%; in assay [7] it was 52%.

`CC(=O)O[C@@H]1CC[C@@]2(C)[C@@H](CC[C@]3(C)[C@@H]2C(=O)C=C2[C@@H]4[C@@H](C)[C@H](C)CC[C@]4(C)CC[C@]23C)[C@@]1(C)C(=O)O`: the inhibition in assay [1] was 52%; in assay [7] it was 63%. Consider `C[C@H]1[C@H](C)CC[C@]2(CO)CC[C@]3(C)C(=CC[C@@H]4[C@@]5(C)CC[C@H](O)C(C)(C)[C@@H]5CC[C@]43C)[C@H]12` [UVAOL], for which, in assay [1], the outcome was inactive. Besides, the IC50 result in assay [2] (hek293) is recorded as “Not Active”. Take `C[C@@H]1CC[C@]2(C(=O)O)CC[C@]3(C)C(=CC[C@@H]4[C@@]5(C)C[C@@H](O)[C@H](O)C(C)(C)[C@@H]5CC[C@]43C)[C@@H]2[C@]1(C)O` [TOMENTIC ACID]: the result in assay [1] was inactive. The IC50 entry in assay [2] (hek293) is given as “Not Active”.

On to `COC(=O)[C@]12CCC(C)(C)C[C@H]1C1=CC[C@@H]3[C@@]4(C)C[C@@H](O)[C@H](O)C(C)(C)[C@@H]4CC[C@@]3(C)[C@]1(C)CC2` [MASLINIC ACID METHYL ESTER], for which, in assay [1], the outcome was inactive. Further, in assay [2] (hek293), the IC50 result was “Not Active”. In the case of `COC(=O)[C@]12CC[C@@H](C)[C@H](C)[C@H]1C1=CC[C@@H]3[C@@]4(C)CC[C@H](O)C(C)(C)[C@@H]4CC[C@@]3(C)[C@]1(C)CC2`, the outcome in assay [1] was inactive. For `C[C@H]1[C@H](C)CC[C@]2(C(=O)O)CC[C@]3(C)C(=CC(=O)[C@@H]4[C@@]5(C)CC[C@H](O)C(C)(C)[C@@H]5CC[C@]43C)[C@H]12`, in assay [2] (read-out: IC50), the IC50 came to 2060 nM.

Take `C[C@H](CC(=O)C[C@@H](C)[C@H]1C[C@H](O)[C@@]2(C)C3=C(C(=O)C[C@]12C)[C@@]1(C)CCC(=O)C(C)(C)[C@@H]1C[C@@H]3O)C(=O)O`: the values for the inhibition in assay [1] and in assay [7] were 76% and 46%, respectively.
